{
  "source": "paper PMC11912722",
  "about": "“Chikusetsusaponin IVa targeted YAP as an inhibitor to attenuate liver fibrosis and hepatic stellate cell activation” (Chinese Medicine, 2025)",
  "molecular_target": "T1, YAP in LX-2 cells (Homo sapiens, UniProt P46937)",
  "T1 construct": "gene YAP1; endogenous full-length protein in LX-2 cells, detected by western blot (YAP antibody Cell Signaling 14074 T)",
  "T1 sequence (P46937 whole entry)": "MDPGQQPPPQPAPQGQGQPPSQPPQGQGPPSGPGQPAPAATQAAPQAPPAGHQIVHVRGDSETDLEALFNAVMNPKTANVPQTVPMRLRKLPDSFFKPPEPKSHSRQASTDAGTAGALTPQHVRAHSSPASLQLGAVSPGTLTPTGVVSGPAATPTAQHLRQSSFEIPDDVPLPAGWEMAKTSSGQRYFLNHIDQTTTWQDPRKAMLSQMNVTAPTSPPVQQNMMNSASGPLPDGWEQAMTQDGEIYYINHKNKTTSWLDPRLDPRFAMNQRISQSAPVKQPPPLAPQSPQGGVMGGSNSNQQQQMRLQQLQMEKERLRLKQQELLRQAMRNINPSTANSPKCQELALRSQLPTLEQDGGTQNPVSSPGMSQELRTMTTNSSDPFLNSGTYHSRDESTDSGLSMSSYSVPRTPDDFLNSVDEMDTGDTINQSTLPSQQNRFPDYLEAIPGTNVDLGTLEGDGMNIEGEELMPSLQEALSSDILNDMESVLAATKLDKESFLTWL",
  "experiment": "CETSA, western blot",
  "assay_type": "cell-based",
  "settings": "LX-2 cells incubated 24 h with 10 μmol/L CS-IVa, lysed, supernatant heated 45-75 °C for 3 min",
  "data": [
    {"smiles": "CC1(C)CC[C@]2(C(=O)O[C@@H]3O[C@H](CO)[C@@H](O)[C@H](O)[C@H]3O)CC[C@]3(C)C(=CC[C@@H]4[C@@]5(C)CC[C@H](O[C@@H]6O[C@H](C(=O)O)[C@@H](O)[C@H](O)[C@H]6O)C(C)(C)[C@@H]5CC[C@]43C)[C@@H]2C1", "note": "[CS-IVa]", "values": [
      {"measurement": "thermal stability (CETSA)", "value": "treatment with CS-IVa significantly increased the thermal stability of YAP"}
    ]}
  ]
}
